Reference: US11213499B1, “Use of 3,3′-diselenodipropionic acid (DSePA) as an anticancer agent” (Secretary, Department of Atomic Energy, priority 2020, dated 2022)

Tests used:
human K562 xenograft = assay: Anti-tumor effect in human K562 xenograft model; assay type: in vivo; settings: for mortality: study period of 30 days
Method: These xenografts representative of NSCLC and CML respectively are considered to be highly aggressive and resistant to chemotherapy treatment. Therefore, any new chemotherapy agent against these cancers is very much sought. For the experiment, a total of 12 mice bearing A549 or K562 tumors of volume in the range of ˜50 mm^3 were divided into two groups (I & II), each group comprising of six mice. […] The group II was administered DSePA daily dissolved in sterile saline through oral route at a dosage of 1 mg/Kg body weight. The tumor volume and body weight of mice from each group were monitored daily for a total period of 30 days from the day of start. The animals were also checked for mortality if any throughout the study period. The experiment in A549 tumor was repeated three times (n=18 for each group) and the experiment in K562 tumor was repeated two times (n=12 for each group). […] This is the first study to show the anticancer activity of DSePA per se using xenograft model of human lung cancer (A549) and human leukemia (K562) cells in mice. Discovery of the application of the anticancer activity of DSePA is a novel invention in context of its probable usage in treatment for lung and leukemia cancer. More specifically the invention proposes a treatment regime and route of administering DSePA to inhibit the growth of human NSCLC (A549) and CML (K562).
For the optimization of the oral dosage of DSePA, a total of 24 mice bearing A549 or K562 xenograft of volume in the range of ˜50 mm^3 were divided into four groups (I-IV), each group comprising of six mice. […] The groups II, III and IV were administered DSePA dissolved in sterile saline through oral route at the dosage of 1, 2.5 and 5 mg/kg body weight respectively. The administration of DSePA was performed daily for 4 weeks. The tumor volume and body weight of mice from each group were monitored daily for a total period of 30 days from the day of start. The animals were also checked for mortality if any throughout the study period.
Animal maintenance—All animal studies were approved by the Institutional Animal Ethics Committee. Animals were housed under standard conditions (20±2° C., 65-70% humidity, 12 h/12 h day/night cycle, balanced laboratory diet and tap water ad libitum.
Xenograft tumor model-A549 and K562 tumor models were developed by Anticancer Drug Screening Facility of Advanced Centre for Treatment, Research and Education in Cancer (ACTREC), India. Briefly, Male/female NOD-SCID aged 6-7 weeks were housed in the laboratory animal facility of ACTREC. Donor mice carrying K562 or A549 xenografts were developed by injecting 2×10^6 cells in 100 μl of DMEM/RPMI, subcutaneously in their right flank. When tumors attained the size of approximately 2000 mm^3, the animals were sacrificed. Tumors were obtained and further cut into 2-3 mm fragments and implanted subcutaneously in the right flank of 6-7 weeks old recipient SCID mice. Tumors were allowed to grow to a size of approximately 50 mm^3 following which animals were divided into groups of six animals each for evaluation. A fresh DSePA solution was prepared by dissolution in sterile saline before each administration by intraperitoneal/oral route. The tumor efficacy of DSePA was determined by monitoring parameters like tumor volume and T/C. Tumors were assumed spherical and volume was calculated using following equations (1 & 2): […]
Where d1 (mm) and d2 (mm) are diameters measured in two perpendicular planes. T/C is defined as the ratio of the mean tumor volume of DSePA treated groups with the mean tumor volume of control group on the day of observation.

[1] = mice; cited from earlier work
[2] = 1 mg/kg body weight daily oral, day 1
[3] = 1 mg/kg body weight daily oral, day 5
[4] = 1 mg/kg body weight daily oral, day 9
[5] = 1 mg/kg body weight daily oral, day 12
[6] = 1 mg/kg body weight daily oral, day 15
[7] = 1 mg/kg body weight daily oral, day 18
[8] = 1 mg/kg body weight daily oral, day 21
[9] = 1 mg/kg body weight daily oral, day 24
[10] = 1 mg/kg body weight daily oral, day 27
[11] = 1 mg/kg body weight daily oral, day 32
[12] = 2.5 mg/kg body weight daily oral, day 1
[13] = 2.5 mg/kg body weight daily oral, day 5
[14] = 2.5 mg/kg body weight daily oral, day 9
[15] = 2.5 mg/kg body weight daily oral, day 12
[16] = 2.5 mg/kg body weight daily oral, day 15
[17] = 2.5 mg/kg body weight daily oral, day 18
[18] = 2.5 mg/kg body weight daily oral, day 21
[19] = 2.5 mg/kg body weight daily oral, day 24
[20] = 2.5 mg/kg body weight daily oral, day 27
[21] = 2.5 mg/kg body weight daily oral, day 32
[22] = 5 mg/kg body weight daily oral, day 1
[23] = 5 mg/kg body weight daily oral, day 5
[24] = 5 mg/kg body weight daily oral, day 9
[25] = 5 mg/kg body weight daily oral, day 12
[26] = 5 mg/kg body weight daily oral, day 15
[27] = 5 mg/kg body weight daily oral, day 18
[28] = 5 mg/kg body weight daily oral, day 21
[29] = 5 mg/kg body weight daily oral, day 24
[30] = 5 mg/kg body weight daily oral, day 27
[31] = 5 mg/kg body weight daily oral, day 32

## O=C(O)CC[Se][Se]CCC(=O)O [DSePA, 3,3′-diselenodipropionic acid]
Human K562 xenograft; 1 mg/Kg body weight daily oral, two independent experiments
  tumor growth inhibition vs control: significantly (P<0.05) inhibited the growth
Human K562 xenograft; 1 mg/Kg orally daily, end of study period (30 days), n=12, P=0.011
  overall reduction (relative tumor volume vs tumor control): ~3.7 folds
Human K562 xenograft; 1 mg/Kg orally daily, two independent studies
  mortality: did not show any mortality
Human K562 xenograft; [2]
  % S (Survival): 100%
  RTV (Relative Tumor Volume): 1
  T/C (T (test)/C (control)): 1
Human K562 xenograft; [3]
  % S (Survival): 100%
  RTV (Relative Tumor Volume): 1.13
  T/C (T (test)/C (control)): 0.80
Human K562 xenograft; [4]
  % S (Survival): 100%
  RTV (Relative Tumor Volume): 1.13
  T/C (T (test)/C (control)): 0.79
Human K562 xenograft; [5]
  % S (Survival): 100%
  RTV (Relative Tumor Volume): 1.22
  T/C (T (test)/C (control)): 0.48
Human K562 xenograft; [6]
  % S (Survival): 100%
  RTV (Relative Tumor Volume): 1.42
  T/C (T (test)/C (control)): 0.37
Human K562 xenograft; [7]
  % S (Survival): 100%
  RTV (Relative Tumor Volume): 2.28
  T/C (T (test)/C (control)): 0.38
Human K562 xenograft; [8]
  % S (Survival): 100%
  RTV (Relative Tumor Volume): 1.90
  T/C (T (test)/C (control)): 0.33
Human K562 xenograft; [9]
  % S (Survival): 100%
  RTV (Relative Tumor Volume): 2.22
  T/C (T (test)/C (control)): 0.24
Human K562 xenograft; [10]
  % S (Survival): 100%
  RTV (Relative Tumor Volume): 3.24
  T/C (T (test)/C (control)): 0.32
Human K562 xenograft; [11]
  % S (Survival): 100%
  RTV (Relative Tumor Volume): 4.38
  T/C (T (test)/C (control)): 0.36
Human K562 xenograft; [12]
  % S (Survival): 100%
  RTV (Relative Tumor Volume): 1
  T/C (T (test)/C (control)): 1
Human K562 xenograft; [13]
  % S (Survival): 100%
  RTV (Relative Tumor Volume): 1.09
  T/C (T (test)/C (control)): 0.76
Human K562 xenograft; [14]
  % S (Survival): 100%
  RTV (Relative Tumor Volume): 1.01
  T/C (T (test)/C (control)): 0.70
Human K562 xenograft; [15]
  % S (Survival): 100%
  RTV (Relative Tumor Volume): 1.42
  T/C (T (test)/C (control)): 0.56
Human K562 xenograft; [16]
  % S (Survival): 100%
  RTV (Relative Tumor Volume): 1.66
  T/C (T (test)/C (control)): 0.43
Human K562 xenograft; [17]
  % S (Survival): 100%
  RTV (Relative Tumor Volume): 1.79
  T/C (T (test)/C (control)): 0.30
Human K562 xenograft; [18]
  % S (Survival): 100%
  RTV (Relative Tumor Volume): 1.54
  T/C (T (test)/C (control)): 0.26
Human K562 xenograft; [19]
  % S (Survival): 100%
  RTV (Relative Tumor Volume): 1.23
  T/C (T (test)/C (control)): 0.13
Human K562 xenograft; [20]
  % S (Survival): 100%
  RTV (Relative Tumor Volume): 1.74
  T/C (T (test)/C (control)): 0.17
Human K562 xenograft; [21]
  % S (Survival): 100%
  RTV (Relative Tumor Volume): 2.21
  T/C (T (test)/C (control)): 0.18
Human K562 xenograft; [22]
  % S (Survival): 100%
  RTV (Relative Tumor Volume): 1
  T/C (T (test)/C (control)): 1
Human K562 xenograft; [23]
  % S (Survival): 100%
  RTV (Relative Tumor Volume): 1.04
  T/C (T (test)/C (control)): 0.73
Human K562 xenograft; [24]
  % S (Survival): 100%
  RTV (Relative Tumor Volume): 1.05
  T/C (T (test)/C (control)): 0.73
Human K562 xenograft; [25]
  % S (Survival): 100%
  RTV (Relative Tumor Volume): 1.32
  T/C (T (test)/C (control)): 0.52
Human K562 xenograft; [26]
  % S (Survival): 100%
  RTV (Relative Tumor Volume): 1.11
  T/C (T (test)/C (control)): 0.29
Human K562 xenograft; [27]
  % S (Survival): 100%
  RTV (Relative Tumor Volume): 1.29
  T/C (T (test)/C (control)): 0.22
Human K562 xenograft; [28]
  % S (Survival): 100%
  RTV (Relative Tumor Volume): 1.22
  T/C (T (test)/C (control)): 0.21
Human K562 xenograft; [29]
  % S (Survival): 100%
  RTV (Relative Tumor Volume): 1.25
  T/C (T (test)/C (control)): 0.13
Human K562 xenograft; [30]
  % S (Survival): 100%
  RTV (Relative Tumor Volume): 1.73
  T/C (T (test)/C (control)): 0.17
Human K562 xenograft; [31]
  % S (Survival): 100%
  RTV (Relative Tumor Volume): 2.45
  T/C (T (test)/C (control)): 0.20
Human K562 xenograft; dosage optimization, 1 mg/kg body weight daily oral for 4 weeks
  tumor growth inhibition vs control: significantly (P<0.05) inhibited the growth of K562 tumor from the day 15 onwards
Human K562 xenograft; dosage optimization, 2.5 mg/kg body weight daily oral for 4 weeks
  tumor growth inhibition vs control: significantly (P<0.05) inhibited the growth of K562 tumor from the day 15 onwards
Human K562 xenograft; dosage optimization, 5 mg/kg body weight daily oral for 4 weeks
  tumor growth inhibition vs control: significantly (P<0.05) inhibited the growth of K562 tumor from the day 15 onwards
Human K562 xenograft; dosage optimization, 1, 2.5 and 5 mg/kg daily oral
  mortality: did not show any mortality
Human K562 xenograft; leukemia model, 1 mg/kg body weight daily oral
  T/C achieved: ≤ 0.42
Human K562 xenograft; oral daily
  minimum dosage to achieve optimum efficacy: 1 mg/kg body weight
[1]
  estimated median oral Lethal dose (LD50) cut-off: 200 mg/kg
